Laboratory results as given in patent US6004983A, “N-substituted azaheterocyclic compounds” (Novo Nordisk A/S, priority 1996, dated 1999).

System: histamine induced oedema
Test: Histamine induced paw oedema (rat histamine paw oedema test)
Assay type: in vivo, rat (male Sprague-Dawley)
Details: at 1 mg/kg, intraperitoneally 15 minutes before the anaesthetics, histamine 50 microliter, 3 mg/ml in right hind paw, swelling 20 minutes after histamine
Protocol: Compounds of formula I may be used to treat all painful, hyperalgesic and/or inflammatory conditions in which C-fibres play a pathophysiological role by eliciting neurogenic pain or inflammation, i. e.:
I. Histamine induced paw oedema
The rat histamine paw oedema test was performed essentially as described by Amann et al. (Europ. J. Pharmacol. 279, 227-231, 1995). In brief 250-300 g male Sprague-Dawley rats were anaesthetized with pentobarbital sodium, and placed on a 32 degree(Celsius) heated table. Ten minutes later histamine (50 micoliter, 3 mg/ml) was injected in the right hind paw and 20 minutes hereafter the paw swelling was determined by water plethysmography (Ugo Basile). Test compounds were administered intraperitoneally at 15 minutes before the anaesthetics.

Row | SMILES | % oedema inhibition (inhibition of histamine induced oedema) [%]
1 | Cl.O=C(O)C1CCN(CC=C2c3ccccc3CSc3ccccc32)CC1 [Example 2, 1-(2-(6,11-Dihydrodibenzo[b,e]thiepin-11-ylidene)-1-ethyl)-4-piperidinecarboxylic acid hydrochloride] | 51
2 | Cl.O=C(O)[C@H]1CCCCN1CC=C1c2ccccc2CCc2ccccc21 [Example 12, (R)-1-(2-(10,11-dihydro-5H-dibenzo[a,d]cyclohepten-5-ylidene)-1-ethyl)-2-piperidinecarboxylic acid hydrochloride] | 49
